Among the data in the supplement of paper PMC10307832 are relative viability values, retold here.

Common to all, as to test: relative viability (nuclei count vs DMSO), 5 days (fraction); higher = more cells survive
Compound in the experiment “Adavosertib + OSI-027”: C=CCn1c(=O)c2cnc(Nc3ccc(N4CCN(C)CC4)cc3)nc2n1-c1cccc(C(C)(C)O)n1 [Adavosertib] + COc1cccc2cc(-c3nc([C@H]4CC[C@H](C(=O)O)CC4)n4ncnc(N)c34)[nH]c12 [OSI-027] (partner 0.5 µM)
In outline: (§1)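 Lung cancer cell lines in 1536-well plates got either a single drug or a fixed anchor-drug dose together with five library-drug doses (not always all listed) in √10 steps, by pin tool, on the day after seeding. Nuclei were counted after 5 days, and relative viability is the treated-to-vehicle ratio of nuclei counts. Values are medians of duplicate plates.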

Compound in the experiment “Nelarabine + Luminespib”: COc1nc(N)nc2c1ncn2[C@@H]1O[C@H](CO)[C@@H](O)[C@@H]1O [Nelarabine] + CCNC(=O)c1noc(-c2cc(C(C)C)c(O)cc2O)c1-c1ccc(CN2CCOCC2)cc1 [Luminespib] (partner 0.01 µM)
The method in brief:
as §1

Compound in the experiment “Adavosertib + Phenformin”: C=CCn1c(=O)c2cnc(Nc3ccc(N4CCN(C)CC4)cc3)nc2n1-c1cccc(C(C)(C)O)n1 [Adavosertib] + N=C(N)NC(=N)NCCc1ccccc1 [Phenformin] (partner 250 µM)
In outline: as §1

Compound in the experiment “Adavosertib + Bortezomib”: C=CCn1c(=O)c2cnc(Nc3ccc(N4CCN(C)CC4)cc3)nc2n1-c1cccc(C(C)(C)O)n1 [Adavosertib] + CC(C)C[C@H](NC(=O)[C@H](Cc1ccccc1)NC(=O)c1cnccn1)B(O)O [Bortezomib] (partner 0.002 µM)
The method in brief: as §1

For EMC-BAC-2, the relative viability turned out to be 0.375 with Adavosertib + OSI-027 (first compound 0.01 µM); 0.412 with Adavosertib + OSI-027 (first compound 0.03162 µM); 0.396 in the experiment with Adavosertib + OSI-027 (first compound 0.1 µM); 0.307 with Adavosertib + OSI-027 (first compound 0.3162 µM); 1.41 with Nelarabine + Luminespib (first compound 0.01 µM); 1.16 with Nelarabine + Luminespib (first compound 0.03162 µM). The relative viability with Nelarabine + Luminespib (first compound 0.1 µM) is 1.11; with Nelarabine + Luminespib (first compound 0.3162 µM), 1.22; with Nelarabine + Luminespib (first compound 1 µM) it was 1.28; with Adavosertib + Phenformin (first compound 0.01 µM), 0.547; in the experiment with Adavosertib + Phenformin (first compound 0.03162 µM), 0.557; with Adavosertib + Phenformin (first compound 0.1 µM), 0.519. Moreover, the relative viability with Adavosertib + Phenformin (first compound 0.3162 µM) was 0.479; in the experiment with Adavosertib + Bortezomib (first compound 0.01 µM) it was 0.987; with Adavosertib + Bortezomib (first compound 0.03162 µM) it was 0.989; with Adavosertib + Bortezomib (first compound 0.1 µM), 1.06; with Adavosertib + Bortezomib (first compound 0.3162 µM), 1.04.
